Measurements published in patent US12331040B2 (Karyopharm Therapeutics Inc., priority 2013, dated 2025).

Experiments:
MDA-MB-468 xenografts = assay: MDA-MB-468 (triple negative breast cancer) xenograft in CB-17 SCID mice; type: in vivo, mouse; conditions: for mean tumor volume of MDA-MB-468 xenografts: CB-17 SCID mice, 15 mg/kg PO once daily Monday through Friday; for toxicity (side effects, weight loss): MDA-MB-468 xenograft model, minimal or no side effects or weight loss up to 200 mg/kg daily dose
Protocol: The oncological impact of Compound 504 and Compound 510 were tested using a MDA-MB-468 (triple negative breast cancer) xenograft model in CB-17 SCID mice. MDA-MB-468 (ATCC #HTB-102) breast adenocarcinoma cells were obtained from ATCC. The cells were grown in high glucose DMEM supplemented with 10% fetal bovine serum, 1% penicillin and streptomycin, and 2 mM L-glutamine. Cells were sub-cultured by dilution at a ratio of 1:4. MDA-MB-468 cells were harvested by trypsinization and counted using a hemocytometer. Cells were resuspended in PBS at a 4×10^8 cells per mL. Cells were placed on ice and mixed with an equal volume of Matrigel (BD Biosciences CB-40234). Thirty-two (32) CB-17 SCID mice were inoculated sub-cutaneously in the left flank with 4×10^7 MDA-MB-468 cells. Treatment was initiated when the tumors reached a mean volume of about 100 mm^3. Mice were allocated to four (4) groups of eight (8) mice such that mean tumor volume was about 100 mm^3 in each group. Mice were treated with vehicle, standard of care/positive control drug (paclitaxel), Compound 504 or Compound 510. Compound 504 (15 mg/kg) and Compound 510 (15 mg/kg) were given orally (PO) once daily on Monday through Friday each week. Animals' weights and condition were recorded daily, and tumors were measured on Mondays, Wednesdays, and Fridays.

HT-29 cells = assay: MTT cell proliferation assay; type: cell-based; conditions: Homo sapiens, 72-hour MTT
Protocol: The MTT cell proliferation assay was used to study the cytotoxic properties of the compounds. The assay was performed according to the method described by Roche Molecular Biochemicals, with minor modifications. The assay is based on the cleavage of the tetrazolium salt, MTT, in the presence of an electron-coupling reagent. The water-insoluble formazan salt produced must be solubilized in an additional step. Cells grown in a 96-well tissue culture plate were incubated with the MTT solution for approximately 4 hours. After this incubation period, a water-insoluble formazan dye formed. After solubilization, the formazan dye was quantitated using a scanning multi-well spectrophotometer (ELISA reader). […] The cells were seeded at 5,000-10,000 cells in each well of 96-well plate in 100 μL of fresh culture medium and were allowed to attach overnight. The stock solutions of the compounds were diluted in 100 μL cell culture medium to obtain eight concentrations of each test compound, ranging from 1 nM to 30 μM. […] All optical densities were measured at 490 nm using a Vmax Kinetic Microplate Reader (Molecular Devices). In most cases, the assay was performed in duplicate and the results were presented as a mean percent inhibition to the negative control±SE. The following formula was used to calculate the percent of inhibition: Inhibition (%)=(1−(ODo/OD))×100.
Compounds 504, 510, 525 and 585 were further tested against selected solid and hematological cancer cell lines and selected normal cell lines in a 72-hour MTT cell proliferation assay.

[1] = tested on: PAK4 signalling in NHDF cells; assay: Western blots of PAK4 signalling in normal cells (NHDF); type: cell-based, human; conditions: NHDF normal cell line; 72-hour treatment, increasing concentrations; Western blot
Protocol: Normal human dermal fibroblasts (NHDF) and normal lung cells (IMR-90) were treated with Compound 585 for 72 hours, at which time the cells were lysed in RIPA buffer. The lysates were run on SDS-PAGE and Western blots of phospho-PAK4, PAK4, phospho-cofilin, cofilin, phospho-β-catenin, β-catenin, PARP and caspase-3 were performed.

U2OS cells = assay: Staining of β-catenin, cofilin and F-actin in fixed U2OS cells; type: cell-based, human; conditions: 1 μM, 48 hours
Protocol: U2OS cells were grown on coverslips and treated with DMSO or 1 μM Compound 585 for 48 hours, at which time the cells were fixed and stained. The cells were labeled with phospho- or total β-catenin antibodies; phospho- or total cofilin antibodies; or ALEXA-FLUORO 488 phalloidin. Both phospho- and total β-catenin were reduced by treatment with Compound 585. Both phospho- and total cofilin were reduced by treatment with Compound 585. ALEXA-FLUORO 488 phalloidin was used to stain F-actin.

HL-60 cells = assay: MTT cell proliferation assay; type: cell-based; conditions: Homo sapiens; HL-60 cells; 72-hour MTT; read-out: HL-60 MTT IC50
RPMI8226 cells = assay: MTT cell proliferation assay; type: cell-based; conditions: Homo sapiens, RPMI-8226; RPMI8226 cells; 72-hour MTT; read-out: RPMI8226 MTT IC50
Hep G2 cells = assay: MTT cell proliferation assay; type: cell-based; conditions: Homo sapiens, HepG2; Hep G2 cells; 72-hour MTT; read-out: Hep G2 MTT IC50
HEP 3B cells = assay: MTT cell proliferation assay; type: cell-based; conditions: Homo sapiens, Hep3B; HEP 3B cells; 72-hour MTT; read-out: HEP 3B MTT IC50

| SMILES | mean tumor volume of MDA-MB-468 xenografts (MDA-MB-468 xenografts) | toxicity (side effects, weight loss) (MDA-MB-468 xenografts) | IC50 (HT-29 cells) [nM] | effect on PAK4 signalling (phospho-PAK4, PAK4, phospho-cofilin, cofilin, phospho-β-catenin, β-catenin, PARP, caspase 3) [1] | stress fiber formation (F-actin, phalloidin) (U2OS cells) | phospho- and total cofilin (U2OS cells; antibody staining) | phospho- and total β-catenin (U2OS cells; antibody staining) | IC50 (HL-60 cells) [nM] | IC50 (RPMI8226 cells) [nM] | IC50 (Hep G2 cells) [nM] | IC50 (HEP 3B cells) [nM] |
| --- | --- | --- | --- | --- | --- | --- | --- | --- | --- | --- | --- |
| Nc1ccc(/C=C/C(=O)NCc2cc3cc(-c4ccc(S(=O)(=O)N5CCOCC5)cc4)cc(Cl)c3o2)cn1 [Compound 504, (E)-3-(6-Aminopyridin-3-yl)-N-((7-chloro-5-(4-(morpholinosulfonyl)phenyl)benzofuran-2-yl)methyl)acrylamide] | tumor growth inhibition | without major toxicity | 480 | – | – | – | – | – | – | – | – |
| Nc1ccc(/C=C/C(=O)NCc2cc3cc(-c4ccc(C(=O)N5CCC(F)(F)CC5)cn4)cc(C(F)(F)F)c3o2)cn1 [Compound 585, (E)-3-(6-aminopyridin-3-yl)-N-((5-(5-(4,4-difluoropiperidine-1-carbonyl)pyridin-2-yl)-7-(trifluoromethyl)benzofuran-2-yl)methyl)acrylamide] | – | – | – | little to no effect | increase in stress fiber formation | reduced | reduced | 210 | 150 | 160 | 70 |
| Nc1ccc(/C=C/C(=O)NCc2cc3cc(-c4ccc(C(=O)N5CCOCC5)cc4)cc(C(F)(F)F)c3o2)cn1 [Compound 510, (E)-3-(6-aminopyridin-3-yl)-N-((5-(4-(morpholine-4-carbonyl)phenyl)-7-(trifluoromethyl)benzofuran-2-yl)methyl)acrylamide] | tumor growth inhibition | without major toxicity | 9310 | – | – | – | – | – | – | – | – |
